Test results published in US20150366252A1, “SWEETENER ENHANCERS AND METHODS FOR USING THE SAME” (International Flavors & Fragrances Inc., priority 2014, published 2015).

System: human panelists (sweet taste of glucose)
Test: Glucose enhancement test: paired-comparison human panelist taste test
Format: in vivo
Settings: for glucose concentration perceived by panelists as equally sweet (as sweet as): composition of 7% glucose + 8 ppm compound; for glucose enhancement effects (overall statement): human panelist taste test, 7% glucose + 8 ppm compound
Method: Compounds 1-3 were tested for glucose sweetness enhancement by human panelist taste tests. Test samples containing the compound of interest were tasted in pairs by the panelist to determine which of the samples were sweeter. Binominal distribution for two-sided pair comparisons were used to determine the probability of the correct number of responses at α=0.05 (95% confidence level).

[1] = 7% glucose + 8 ppm compound vs 8.5% glucose
[2] = 7% glucose + 8 ppm compound vs 8.5% glucose, 12 panelists × 2 reps

Q: How did the “sweetness perceived by panelists relative to 8.5% glucose” value [1] turn out when `CC(C)NC(=O)C1(COc2cccc3c2C(N)=NS(=O)(=O)N3)CCCNC1=O` (stereo not shown) [Compound 2, 3-(((4-amino-2,2-dioxido-1H-benzo-[c][1,2,6]thiadiazin-5-yl)oxy)methyl)-N-isopropyl-2-oxopiperidine-3-carboxamide] was run?
A: significantly sweeter

Q: What about the “Total (sample selected as sweeter by panelists)” value [2] of the same compound?
A: 23

Q: For `NC1=NS(=O)(=O)Nc2cccc(OCC3(C(=O)NC4CCCCC4)CCCNC3=O)c21` (stereo not shown) [Compound 3, 3-(((4-amino-2,2-dioxido-1H-benzo[c][1,2,6]thiadiazin-5-yl)oxy)methyl)-N-cyclohexyl-2-oxopiperidine-3-carboxamide], which “sweetness perceived by panelists relative to 8.5% glucose” value [1] is on record?
A: significantly sweeter

Q: And the “Total (sample selected as sweeter by panelists)” value [2]?
A: 21

Q: What about the “Total (sample selected as sweeter by panelists)” value (7% glucose + 8 ppm compound vs 9% glucose, 12 panelists × 2 reps) of the same compound?
A: 14

Q: And the “glucose concentration perceived by panelists as equally sweet (as sweet as)” value?
A: 9 % glucose

Q: Which results are given for `CCCNC(=O)C(C)(C)COc1cccc2c1C(N)=NS(=O)(=O)N2` [FEMA 4701, reference compound]?
A: Total (sample selected as sweeter by panelists) (7% glucose + 8 ppm compound vs 8% glucose, 12 panelists × 2 reps): 13; sweetness perceived by panelists relative to 8.5% glucose [1]: significantly less sweet; Total (sample selected as sweeter by panelists) [2]: 21; glucose concentration perceived by panelists as equally sweet (as sweet as): 8 % glucose; glucose enhancement effects (overall statement): only showed marginal glucose enhancement effects

Q: `Cc1nc2cccc(OCC(C)(C)C(=O)NC(C)C)c2c(N)c1C(=O)O` [FEMA 4774, reference compound] was tested. Which “sweetness perceived by panelists relative to 7% glucose” value (7% glucose + 8 ppm compound vs 7% glucose) did it give?
A: only being directionally sweeter

Q: And the “Total (sample selected as sweeter by panelists)” value (7% glucose + 8 ppm compound vs 7% glucose, 12 panelists × 2 reps)?
A: 17

Q: And the “glucose enhancement effects (overall statement)” value?
A: did not show significant glucose enhancement effects

Q: For `NC1=NS(=O)(=O)Nc2cccc(OCC3(C(=O)NC4CCCC4)CCCNC3=O)c21` (stereo not shown) [Compound 1, 3-(((4-Amino-2,2-dioxido-1H-benzo[c][1,2,6]thiadiazin-5-yl)oxy)methyl)-N-cyclopentyl-2-oxopiperidine-3-carboxamide], which “sweetness perceived by panelists relative to 8.5% glucose” value [1] is on record?
A: significantly sweeter

Q: What about the “Total (sample selected as sweeter by panelists)” value (7% glucose + 8 ppm compound vs 9.5% glucose, paired comparison) of the same compound?
A: 17

Q: And the “Total (sample selected as sweeter by panelists)” value (7% glucose + 8 ppm compound vs 10% glucose, paired comparison)?
A: 11

Q: And the “Total (sample selected as sweeter by panelists)” value (7% glucose + 8 ppm compound vs 10.5% glucose, paired comparison)?
A: 6

Q: And the “glucose concentration perceived by panelists as equally sweet (as sweet as)” value?
A: 10 % glucose
